In patent US20070254903A1, “Novel Spiroindoline or Spiroisoquinoline Compounds, Methods of Use and Compositions Thereof” (ARENA PHARMACEUTICALS, INC., priority 2003, published 2007):

Experiments:
[1] = test system: isolated adult rat hearts; experiment: Ischemia-Reperfusion Assay 1 (Langendorff apparatus); conditions: 10 μM; 30 min ischemia, 30 min reperfusion; compared to vehicle; FIG. 2
Description: Male Sprague-Dawley rats (300-350 g body weight) were anesthetized with pentobarbital sodium (50 mg/kg IP) then heparin (400 IU IP) was administered 10 minutes prior to surgery. The chest wall was opened and the heart was rapidly excised and immediately placed into ice-cold Krebs-Henseleit (KH) buffer (118 mM NaCl, 4.7 mM KCl, 1.2 mM MgSO4, 1.2 mM KH2PO4, 1.5 mM CaCl2, 25 mM NaHCO3, 11 mM glucose, 1 mM pyruvate, and 0.005 mM EDTA) to produce cardiac arrest. The aorta was then cannulated and the heart retrogradely perfused with KH buffer maintained at 37° C. in a reservoir bubbled with 95% O2/5% CO2 (pH7.4) on the Langendorff apparatus at a constant pressure of 80 mmHg. Myocardial temperature was maintained at 37° C. by partially submerging the heart into a water-jacketed chamber filled with KH buffer. A water filled latex balloon attached to a metal cannula and inserted into the left ventricle via the mitral valve and connected to a pressure transducer (Powerlab, ADInstruments, Inc) was used for measurement of left ventricular pressure. The balloon was initially inflated to an end-diastolic pressure of 10 mmHg. […] The difference between peak-systolic and end diastolic pressures, or left ventricular developed pressure (LVDP) was calculated as an index of contractile function and measured just prior to ischemia and at the end of reperfusion. […]

[2] = test system: isolated adult rat hearts; experiment: Ischemia-Reperfusion Assay 2 (Langendorff apparatus)
Description: Male Sprague-Dawley rats (300-350 g body weight) were anesthetized with Inactin (100 mg/kg IP) 20 minutes prior to surgery. The chest wall was opened and the heart was rapidly excised and immediately placed into ice-cold Krebs-Henseleit (KH) buffer (118 mM NaCl, 4.7 mM KCl, 1.2 mM MgSO4, 1.2 mM KH2PO4, 1.5 mM CaCl2, 25 mM NaHCO3, 11 mM glucose […], and 0.005 mM EDTA) to produce cardiac arrest. The aorta was then cannulated and the heart retrogradely perfused with KH buffer maintained at 37° C. in a reservoir bubbled with 95% O2/5% CO2 (pH7.4) on the Langendorff apparatus at a constant pressure of 70 mmHg. Myocardial temperature was maintained at 37° C. by partially submerging the heart into a water-jacketed chamber filled with KH buffer. A water filled latex balloon attached to a metal cannula and inserted into the left ventricle via the mitral valve and connected to a pressure transducer (Powerlab, ADInstruments, Inc) was used for measurement of left ventricular pressure. The balloon was initially inflated to an end-diastolic pressure of 10 mmHg. After allowing 20 minutes for equilibration, rat hearts were subjected to 10 minutes of KH buffer containing drug or vehicle followed by 30 minutes of ischemia followed by 30 minutes of reperfusion. The difference between peak-systolic and end diastolic pressures, or left ventricular developed pressure (LVDP) was calculated as an index of contractile function and measured just prior to ischemia and at 10, 20 and 30 minutes of reperfusion. Percent recovery of LV function [(LVDP post reperfusion/LVDP pre-ischemia)[…]] was averaged across 5 vehicle and 4 drug treated hearts and one-way anova with Newman-Keuls Multiple Comparison Test was used to determine statistical significance.
Epicardial electrogram recordings were also taken from the isolated rat hearts used in FIGS. 3 and 4. Briefly, silver wire electrodes were placed on the right atrium and the apex of the left ventricle, allowing an epicardial electrogram to be recorded. […]

Question: What does the source list for C=CCN1CCC2(CC1)CN(C(=O)c1cccc(F)c1F)c1ccc(F)cc12 [Compound 75, 1′-(allyl)-1,2-dihydro-5-fluoro-1-(2,3-difluoro-benzoyl)-spiro[3H-indole-3,4′-piperidine]]?
Answer: percent recovery of left ventricle function [1]: significant increase in percent recovery of left ventricle function; left ventricle function after reperfusion ([2]; 30 μM, 30 min ischemia, 30 min reperfusion, compared to vehicle, FIG. 3): significant increase in left ventricle function after reperfusion; end diastolic pressure (EDP), ischemic contracture ([2]; 30 μM, compared to vehicle, FIG. 4): significant decrease in end diastolic pressure; early reperfusion arrhythmias (hearts positive) ([2]; epicardial electrogram, first 5 minutes of reperfusion, FIG. 5): none of the four hearts
